Experimental data taken from patent US20140303092A1 (CHIMERIX, INC., priority 2011, published 2014).
Several values for one entry are separate records, joined by “and”; a condition that tells them apart may be missing. Identical values can stand only once.

Tested on: CMV
Experiment: Study HDP-CDV-201: prevention or control of CMV infection in R+ HSCT recipients (efficacy)
Format: in vivo, human (adult allogeneic HSCT recipients)
Conditions: for Difference (HDP-CDV minus placebo) in rate of CMV DNAemia ≧1,000 copies/mL / Rate of CMV DNAemia ≧1,000 copies/mL during the treatment period: CMV modified strata: positive; for Discontinuation: Emergence of CMV disease / Discontinuation: Initiation of alternate CMV therapy: active treatment period
Protocol: The clinical study of the current invention (HDP-CDV-201) was a 9-11 week randomized, placebo-controlled, double-blind, dose-escalation study (40 mg weekly [QW], 100 mg QW, 200 mg QW, 200 mg twice-weekly [BIW], and 100 mg BIW) of HDP-CDV for the prevention of CMV infection post-HCT. Treatment was initiated at the time of engraftment and continued until Week 13 post-HCT. HDP-CDV, at various doses, was active and well tolerated in the prevention CMV infection or disease.
Clinical Studies of HDP-CDV were performed and described in detail in the following Examples. For example, HDP-CDV-201 is a placebo-controlled, dose-escalating trial in HSCT CMV (R+) recipients, evaluating the ability of HDP-CDV to prevent or control CMV infection was carried out. Five cohorts were established in which participants or subjects received either placebo or the HDP-CDV orally, in doses ranging from 40 mg weekly (QW) to 200 mg twice weekly (BIW). Subjects who were post-HSCT were enrolled at the time of engraftment and randomized to HDP-CDV or placebo (3 to 1 ratio) and received blinded therapy until approximately 100 day post-transplantation. HDP-CDV doses were 40 mg QW, 100 mg QW, 200 mg QW, 200 mg BIW and 100 mg BIW. Escalation to the next dose was decided by the data monitoring committee after review of the safety data from the previous Cohort. Subjects who developed CMV disease or CMV infection requiring pre-emptive therapy with local standard of care were discontinued from blinded therapy and followed for 4 weeks. Subjects who completed treatment with blinded therapy were followed for 8 weeks post-therapy.
The primary endpoint was defined as the incidence of CMV disease at any time during treatment or CMV DNAemia≧200 copies/mL at the end of treatment. All subjects who received at least one dose of drug/placebo and had at least one efficacy evaluation post baseline were included in the primary analysis, regardless of their CMV DNAemia status (negative or positive) at baseline (mITT population). Results for the pooled HDP-CDV Cohorts and for each Cohort separately were analyzed versus that for pooled placebo.
The primary efficacy measure for this study was treatment failure, defined as the occurrence of CMV infection, defined as CMV DNAemia>200 copies/mL at the End of Treatment or diagnosis of CMV disease at any time during the treatment period. For the analysis, the following definitions apply:
For subjects who completed the treatment phase of the study, the End of Treatment was defined as the latest assessment from date of the last dose of study drug and up to 7 days for QW dosing, or the date of the last dose of study drug and up to 4 days for BIW dosing. For subjects who discontinued during the treatment phase of the study, the End of Treatment was defined as the date of the last dose of study drug.
The time to event was defined as the period between FDD and date of first occurrence of the event of interest (inclusive). The events included onset of CMV DNAemia, onset of CMV disease, and discontinuation because of excluded anti-CMV medications. Time to event/onset was derived as (the event/onset date—FDD)+1.
As detailed in the Statistical Analysis Plan, a modified CMV stratum was defined prior to conducting the statistical analysis based upon polymerase chain reaction (PCR) results from the central laboratory. If any positive CMV DNA value in plasma was collected before the first dose of study drug (including Screening, Pre-dose, (combined Screening/Pre-dose), CMV for stratification, and FDD), then the subject was placed into the modified CMV positive (≧100 copies/mL) stratum, otherwise the subject was in the modified CMV negative stratum. […]

[1] = 40 mg QW, CMV modified strata: negative
[2] = 40 mg QW, modified CMV negative stratum
[3] = 40 mg QW, treatment period, CMV DNA negative at baseline
[4] = 40 mg QW, whole study period, CMV DNA negative at baseline
[5] = 100 mg BIW, CMV modified strata: negative

**Q.** How did the “anti-CMV activity (in words)” value (40 mg QW) turn out when `CCCCCCCCCCCCCCCCOCCCOP(=O)(O)COC(CO)Cn1ccc(N)nc1=O` (stereo not drawn) [HDP-CDV] was run?
**A.** inactive

**Q.** What about the “Difference (HDP-CDV minus placebo) in infection rate” value [1] of the same compound?
**A.** 9.1%

**Q.** And the “Difference (HDP-CDV minus placebo) in rate of CMV DNAemia ≧1,000 copies/ml” value [1]?
**A.** −9.7%

**Q.** What about the “Rate of CMV DNAemia ≧1,000 copies/ml during the treatment period” value [1] of the same compound?
**A.** 22.2%

**Q.** And the “Rate of CMV Disease or End of Treatment CMV Infection” value [1]?
**A.** 38.9%

**Q.** And the “Difference (HDP-CDV minus placebo) in rate of CMV DNAemia ≧1,000 copies/mL” value (40 mg QW)?
**A.** 2.4%

**Q.** What about the “Rate of CMV DNAemia ≧1,000 copies/mL during the treatment period” value (40 mg QW) of the same compound?
**A.** 85.7%

**Q.** And the “Rate of CMV Disease or End of Treatment CMV Infection” value (40 mg QW, aGVHD randomization strata: negative)?
**A.** 52.2%

**Q.** And the “Difference (HDP-CDV minus placebo) in infection rate” value (40 mg QW, aGVHD strata: negative)?
**A.** 20.1%

**Q.** What about the “Discontinuation: Emergence of CMV disease” value (40 mg QW) of the same compound?
**A.** 3 Subject n (%) and 3 (12.0%) Subject n (%)

**Q.** What about the “Discontinuation: Initiation of alternate CMV therapy” value (40 mg QW) of the same compound?
**A.** 8 (32.0%) Subject n (%)

**Q.** And the “Difference (HDP-CDV minus placebo) in rate of CMV DNAemia ≧1000 copies/mL” value (40 mg QW, mITT)?
**A.** −2.4%

**Q.** What about the “Difference (HDP-CDV minus placebo) in rate of CMV disease or end of treatment CMV infection” value (40 mg QW, mITT) of the same compound?
**A.** 14.7%

**Q.** What about the “Subjects Receiving Antiviral Therapy and/or had CMV disease” value (40 mg QW, mITT) of the same compound?
**A.** 11 (44.0%) subjects (%)

**Q.** And the “Subjects without a CMV event” value (40 mg QW, mITT)?
**A.** 14 (56.0%) subjects (%)

**Q.** And the “Time to Antiviral Therapy, Median” value (40 mg QW, mITT)?
**A.** 29.0 days

**Q.** What about the “Rate of CMV Disease or End of Treatment CMV Infection (≧200 copies/ml)” value (40 mg QW, mITT, missing=infection) of the same compound?
**A.** 52%

**Q.** And the “Rate of CMV DNAemia ≧1000 copies/mL during the treatment period” value (40 mg QW, mITT, post hoc)?
**A.** 40.0%

**Q.** What about the “Time to Antiviral Therapy, Mean” value (40 mg QW, mITT, censored values not included) of the same compound?
**A.** 27.1 days

**Q.** What about the “Subjects Who Had CMV-related Event (CMV disease, CMV DNAemia ≧1,000 c/mL or initiation of anti-CMV treatment)” value [2] of the same compound?
**A.** 5 (27.8%) subjects (%)

**Q.** What about the “Subjects without a CMV-related event” value [2] of the same compound?
**A.** 13 (72.2%) subjects (%)

**Q.** And the “Developed CMV DNAemia (≧100 copies/mL) during the treatment period” value (40 mg QW, plasma CMV DNA negative at baseline, mITT)?
**A.** 10 (52.6%) N(%)

**Q.** What about the “Median Survival Time to CMV DNAemia (Kaplan-Meier)” value [3] of the same compound?
**A.** 51.0 days

**Q.** What about the “Time to CMV DNAemia (≧100 copies/mL), Median” value [3] of the same compound?
**A.** 14.5 days

**Q.** What about the “Time to CMV DNAemia (≧100 copies/mL), Mean” value (40 mg QW, treatment period, CMV DNA negative at baseline, censored values not included) of the same compound?
**A.** 17.8 days

**Q.** What about the “Median Survival Time to CMV DNAemia (Kaplan-Meier)” value (40 mg QW, whole study period) of the same compound?
**A.** 51.0 days

**Q.** And the “Number of Subjects who had CMV DNAemia (≧100 copies/mL) by the end of study” value [4]?
**A.** 11

**Q.** And the “Time to CMV DNAemia (≧100 copies/mL), Mean” value [4]?
**A.** 24.5 days

**Q.** And the “Time to CMV DNAemia (≧100 copies/mL), Median” value [4]?
**A.** 15.0 days

**Q.** And the “% CMV Event Rate, primary: CMV DNAemia >200 copies/mL at end of treatment OR CMV disease during treatment” value (“% CMV Event Rate, primary” below) (100 mg BIW (N = 41), CMV modified strata: negative)?
**A.** 2 (4.9%) subjects (%)

**Q.** What about the “% CMV Event Rate, primary” value (100 mg BIW (N = 46), aGVHD strata: negative) of the same compound?
**A.** 4 (8.7%) subjects (%)

**Q.** And the “% CMV Event Rate, primary” value (100 mg BIW (N = 50), mITT)?
**A.** 5 (10.0)%

**Q.** What about the “CMV events (disease at any time or >200 copies at end of treatment)” value (100 mg BIW, CMV modified positive stratum (3 of 9)) of the same compound?
**A.** 33%

**Q.** And the “Difference (HDP-CDV minus placebo) in infection rate” value [5]?
**A.** −24.9%

**Q.** And the “Difference (HDP-CDV minus placebo) in rate of CMV DNAemia ≧1,000 copies/ml” value [5]?
**A.** −31.9%

**Q.** And the “Rate of CMV DNAemia ≧1,000 copies/ml during the treatment period” value [5]?
**A.** 0%

**Q.** What about the “Rate of CMV Disease or End of Treatment CMV Infection” value [5] of the same compound?
**A.** 4.9% and 5%

**Q.** And the “Difference (HDP-CDV minus placebo) in rate of CMV DNAemia ≧1,000 copies/mL” value (100 mg BIW)?
**A.** −38.9%

**Q.** And the “Rate of CMV DNAemia ≧1,000 copies/mL during the treatment period” value (100 mg BIW)?
**A.** 44.4%

**Q.** What about the “Rate of CMV Disease or End of Treatment CMV Infection” value (100 mg BIW, aGVHD randomization strata: negative) of the same compound?
**A.** 9% and 8.7%

**Q.** What about the “Difference (HDP-CDV minus placebo) in infection rate” value (100 mg BIW, aGVHD strata: negative) of the same compound?
**A.** −23.4%

**Q.** And the “Discontinuation: Emergence of CMV disease” value (100 mg BIW)?
**A.** 1 Subject n (%) and 1 (2.0%) Subject n (%)

**Q.** And the “Discontinuation: Initiation of alternate CMV therapy” value (100 mg BIW)?
**A.** 6 (12.0%) Subject n (%)

**Q.** What about the “Difference (HDP-CDV minus placebo) in rate of CMV DNAemia ≧1000 copies/mL” value (100 mg BIW, mITT) of the same compound?
**A.** −34.4%

**Q.** And the “Difference (HDP-CDV minus placebo) in rate of CMV disease or end of treatment CMV infection” value (100 mg BIW, mITT)?
**A.** −27.3%
